In patent US11116774B2, “Modulators of toll-like receptors for the treatment of HIV” (Gilead Sciences, Inc., priority 2014, dated 2021):
Where “and” joins values, the source holds several entries; their conditions need not be identical. Equal entries are not always repeated.

Legend:
proviral SIV DNA = experiment: Proviral SIV DNA in PBMCs, lymph node and colon by qPCR (Example 205); assay type: in vivo, rhesus macaques
From the text: A whole blood sample, an inguinal lymph node sample, and a colon pinch biopsy sample were taken from the animals dosed with the compound of Example 4 and from the animals dosed with the vehicle of Example 201 (placebo group) in the study described in Example 204. These samples were taken prior to initiation of dosing and two weeks after the last dose; all samples were taken while animals were on cART. Total DNA was isolated from each sample using commercially available blood and tissue DNA extraction kits. Proviral SIV DNA levels were measured by quantitative PCR (qPCR) using probe-primer sets specific to the SIV gag gene and normalization for cellular input by measuring the glyceraldehyde 3-phosphate dehydrogenase (GAPDH) gene levels. […] In one of the compound treated animals (166-08), there was only a noted decrease in the proviral DNA content in the PBMCs, a minor increase in lymph node, and a minor decrease in the colon. In the vehicle-dosed placebo control animals, however, there were slight to moderate increases in two of three animals in proviral SIV DNA in the PBMC and colon samples, and relatively stable levels in lymph node samples.

[1] = system: HIV in PBMCs from HIV-infected donors; human Interferon α/β receptor chain 2 blocked; experiment: HIV activation with and without IFNα/β receptor block (Example 212); assay type: cell-based; settings: Example 49 10 nM to 10 uM with anti-IFNα/β receptor chain 2 mAb MMHAR-2 at 1:500; day 4; 4 donors; p<0.05
Experimental: PBMCs from HIV-infected donors on suppressive cART were isolated, as before, and treated with the compound of Example 49 (GS-9620) at the doses indicated (10 nM to 10 uM) in the presence or absence of a mouse monoclonal antibody (clone MMHAR-2) against the human Interferon α/β receptor chain 2 (PBL Assay Science, Piscataway, N.J., Cat #21385-1) used at 1:500 dilution. At day 4 after treatment, cell-free culture supernatant was collected and HIV viral RNA was quantitated using the AmliPrep/COBAS® TaqMan® assay. Fold HIV activation in PBMCs from two HIV-infected donors treated with the compound of Example 49 alone and in combination with the anti-IFNα/β mAB (IFNAR block) is depicted in FIG. 8.

[2] = system: HIV in PBMCs from HIV-infected donors on suppressive cART; experiment: Activation of HIV by Example 49 ex vivo in PBMCs (Example 210); assay type: cell-based, human; settings: N = 18 donors, day 4
Experimental: PBMCs from 18 HIV-infected donors (Donor IDs 152-169) on suppressive cART were isolated, as described previously in Materials and Methods (PBMC Isolation), and immediately added to tissue culture plates pre-equilibrated at 37° C. with media containing DMSO or the compound of Example 49 (GS-9620) at 0.1 uM or 1.0 uM. At day 4 after treatment, cell-free culture supernatants were collected and HIV viral RNA was quantitated using the automated COBAS® AmpliPrep/COBAS® TaqMan® HIV-1 Test, v2.0 system (Roche Diagnostics, Indianapolis, Ind.), as described previously in Materials and Methods (HIV-1 Activation Assay). Geometric mean fold HIV activations from three independent wells for each donor and each condition were expressed as a ratio of HIV-1 RNA copies/ml detected in culture supernatants from TLR7 agonist treated and DMSO treated wells. Fold HIV activation values were plotted using GraphPad Prism software (GraphPad, San Diego, Calif.) and can be seen in FIG. 7. The dashed line indicates 2-fold induction.

[3] = system: polyfunctional proliferating CD8 T cells (CFSE low, IFNg+, TNFa+); experiment: Induction of HIV-specific polyfunctional CD8 T cells ex vivo (Example 216); assay type: cell-based, human; settings: PBMCs from 5 HIV-infected donors, HIV peptide pools
Experimental: PBMCs from 5 HIV-infected donors (Donor IDs 178-180 and 182-183) on suppressive cART were isolated, as described previously, and stained with carboxyfluorescein succinimiyl ester (CFSE). PBMC cultures were treated with DMSO or the compound of Example 49 (GS-9620) at 0.1 or 1 uM. Cultures were incubated at 37° C. for 2 days and treated with 500 ng/ml 15-mer peptide pools derived from overlapping HIV gag, pol, nef, and env consensus peptides (JPT Peptide Technologies GmbH). Cells were incubated at 37° C. for 8 days. Cultures were split into duplicate sets and stained in dulbecco's phosphate buffered saline (DPBS) with LIVE/DEAD Fixable Aqua Dead Cell Stain (Life Technologies). The immune recall response was performed as follows. One culture set was treated with the same HIV peptide pools and the other set was treated with 500 ng/ml CMV/EBV/Flu/Tetanus (CEFT) peptides (JPT Peptide Technologies GmbH). After one hour at 37° C., cultures were treated with 0.7 μl GolgiStop (BD Biosciences) containing monensin and 1 μl GolgiPlug (BD Biosciences) containing brefeldin A. Cultures were incubated for 3 additional hours at 37° C. and stained for 15 minutes with anti-CD4-v450, anti-CD3-AlexaFlour 700, and anti CD8-APC-H7 (BD Biosciences). Cultures were fixed with IC Fixation Buffer (eBioscience) and permeabilized with Permeabilization Buffer (eBioscience). […]

| Compound | Proviral SIV DNA, PBMC, Pre (proviral SIV DNA; SIV+ rhesus on cART, prior to initiation of dosing, one line per animal) | Proviral SIV DNA, PBMC, Post (proviral SIV DNA; SIV+ rhesus on cART, two weeks after the last dose, one line per animal) | Proviral SIV DNA, Colon, Pre (proviral SIV DNA; colon pinch biopsy, on cART, prior to initiation of dosing, one line per animal) | Proviral SIV DNA, Colon, Post (proviral SIV DNA; colon pinch biopsy, on cART, two weeks after the last dose, one line per animal) | Proviral SIV DNA, Lymph node, Pre (proviral SIV DNA; inguinal lymph node, on cART, prior to initiation of dosing, one line per animal) | Proviral SIV DNA, Lymph node, Post (proviral SIV DNA; inguinal lymph node, on cART, two weeks after the last dose, one line per animal) | change of proviral SIV DNA, pre- vs post-treatment, across PBMC, inguinal lymph node and colon (proviral SIV DNA; within each animal, on cART) | mean maximal reduction of fold HIV activation by IFNAR block [1] [%] | Fold geometric mean (HIV activation) ([2]; 100 nM) [fold] | Fold range (HIV activation) ([2]; 100 nM) | N (%) with ≥2-fold activation ([2]; 100 nM) | Fold geometric mean (HIV activation) ([2]; 1,000 nM) [fold] | Fold range (HIV activation) ([2]; 1,000 nM) | N (%) with ≥2-fold activation ([2]; 1,000 nM) | Fold geometric mean (HIV activation) ([2]; 100 and/or 1,000 nM) [fold] | Fold range (HIV activation) ([2]; 100 and/or 1,000 nM) | N (%) with ≥2-fold activation ([2]; 100 and/or 1,000 nM) | increase of mean level of polyfunctional proliferating CD8 T cells compared to DMSO ([3]; 0.1 uM, p<0.05) [fold] | increase of mean level of polyfunctional proliferating CD8 T cells compared to DMSO ([3]; 1 uM, p<0.005) [fold] |
| --- | --- | --- | --- | --- | --- | --- | --- | --- | --- | --- | --- | --- | --- | --- | --- | --- | --- | --- | --- |
| CCCCOc1nc(N)c2c(n1)N(Cc1ccc(CN3CCCC3)cc1)CC(=O)N2 [Example 4] | 150 copies/10^6 cells and 68 copies/10^6 cells and 160 copies/10^6 cells and 120 copies/10^6 cells | 100 copies/10^6 cells and 34 copies/10^6 cells and 89 copies/10^6 cells and 3 copies/10^6 cells | 230 copies/10^6 cells and 80 copies/10^6 cells and 150 copies/10^6 cells and 110 copies/10^6 cells | 210 copies/10^6 cells and 3 copies/10^6 cells (3×) | 270 copies/10^6 cells and 31 copies/10^6 cells and 210 copies/10^6 cells and 130 copies/10^6 cells | 280 copies/10^6 cells and 3 copies/10^6 cells (2×) and 84 copies/10^6 cells | clear decrease in proviral DNA content for three of four animals |  |  |  |  |  |  |  |  |  |  |  |  |
| CCCCOc1nc(N)c2c(n1)N(Cc1cccc(CN3CCCC3)c1)CC(=O)N2 [Example 49] |  |  |  |  |  |  |  | 85 | 9.3 | 2.7-26.6 fold | 10 (56) N (%) | 6.5 | 2.0-21.5 fold | 11 (61) N (%) | 9.1 | 2.0-26.6 fold | 13 (72) N (%) | 9.0 | 7.5 |
